Here are results for eight compounds from US20100197765A1, “METHOD FOR PROMOTING THE EXPRESSION OF P53, AND P53 EXPRESSION PROMOTER FOR USE IN THE METHOD” (THE UNIVERSITY OF TOKUSHIMA, priority 2007, published 2010).

One series concerns vegf IresRNA. The series can be described thus: p53 mRNA in p53-deleted HCT116 cotransfected with p53 vector, vegf IresRNA vector and decoy or antisense LNA-DNA (Northern). The series is classed as cell-based, human.
In series [1] the test system is HCT116 cells (wild-type p53). The series can be described thus: survival rate of HCT116 cells transfected with decoy or antisense LNA-DNA after 5-FU. Conditions: after 5-FU (40 μmol/L). The series is classed as cell-based, human. As for the experimental part: The wild-type and mutant-type p53 decoy LNA-DNA were transfected into HCT116 cells (wild-type p53). The cells transfected with the decoys were cultured in McCoy's 5A medium containing 10% fetal bovine serum and 100 μg/ml (100 units/ml) of streptomycin, and the relative value of the survival rate (%) was calculated according to “Apoptosis evaluation 2”. The relative value was obtained with the number of viable cells of 5-FU untreated cells being considered as 100%. In addition, the survival rate of HCT cells (p53) not transfected with the decoys also was calculated in the same manner as described above.
The wild-type and mutant-type vegf antisenses were transfected into HCT116 cells (wild-type p53). With respect to the cells transfected with the antisenses, the relative value of the survival rate (%) was calculated in the same manner as in Example C4. The relative value was obtained with the number of viable cells of 5-FU untreated cells being considered as 100%. In addition, the survival rate of HCT cells (wild-type p53) not transfected with the vegf antisenses was also calculated in the same manner as described above.

For series [2], the system named is HCT116 cells. The series can be described thus: apoptosis of siRNA-expressing HCT116 cells treated with low-concentration anticancer agents, with or without rVEGF. The series is classed as cell-based, human. Particulars: HCT116 not expressing siRNA (NT) and control siRNA cells, low concentrations, 60 hours. Here is the method: The recombinant vectors that express vegf siRNA#1 and #2 and the vectors that express control siRNA were transfected into HCT116 cells (parent cells, wild-type p53). As a control cell, an HCT116 cell not transfected with a recombinant vector that expresses siRNA was used. These four types of cells were treated in the presence or absence of various anticancer agents having the final concentrations as described below for 60 hours. As the anticancer agent, etoposide (20 μmol/L), doxorubicin (170 nmol/L), and 5-FU (40 μmol/L) were used. With respect to the treated cells, apoptosis (%) was quantified in the same manner as in Example A1.
UTR RNA and function of VEGF protein. With the aim of clarifying an effect of blocking the function of vegf 5′ UTR RNA, recombinant VEGF protein (R&D systems, hereinafter referred to as “rVEGF”) was added to a culture supernatant of cells transfected with vegf siRNA in order to add VEGF protein that is decreased due to siRNA. […] Therefore, in Example A9, 1 ng/ml of rVEGF protein was added to the four types of cells. […] Then, these transfection cells were treated with anticancer agents in the same manner as described above.

Series [3] deals with p53 mRNA. The series can be described thus: degradation/silencing of exogenous p53 mRNA in H1299 cells (Northern). Particulars: H1299, cycloheximide 50 μg/ml, 16 hours. The series is classed as cell-based, human. As for the experimental part: In the same manner as in Example A4, the p53 expression vectors and each type of the recombinant plasmid vectors, pVC and pVCmut5′, or empty vectors (mock) were cotransfected into H1299 cells (p53 null), and the cells were cultured for 12 hours. RNA was collected from each type of the transfection cells, the RNA was separated by a denatured agarose gel electrophoresis, and exogenous p53 mRNA and its degradation product were detected by the Northern blotting. FIG. 7A is a photograph showing exogenous p53 mRNA and its degradation product in each type of the cells. In FIG. 7A, the lane 1 “mock” indicates the result obtained regarding the cells transfected with the empty vectors, the lane 2 “VEGF mut5′” indicates the result obtained regarding the cells transfected with pVCmut5′, and the lane 3 “VEGF 5” indicates the result obtained regarding the cells transfected with pVC. The size (nt) of an RNA marker (Ambion, Inc.) was shown on the left of the photograph of blotting.
First, the p53 expression vectors and each type of the recombinant plasmid vectors, pVC and pVCmut5′, were cotransfected into H1299 cells (p53 null), and the cells were cultured for 8 hours. […] With respect to the treated cells, the expression level of p53 mRNA was analyzed by the Northern blotting. […]

Series [4] concerns p53 mRNA. The series can be described thus: cell-free protein synthesis reaction after heteroduplex formation. The series is classed as biochemical, human. Conditions: cell-free protein synthesis with p53 mRNA/5′ UTR RNA heteroduplex, cycloheximide added. Here is the method:
(5) Detection of p53 mRNA and its Degradation Product In the same manner as in the above-described item (3), mutant 5′ UTR RNA or 5′ UTR was incubated with p53 mRNA. As described above, mutant 5′ UTR RNA and p53 mRNA form a heteroduplex by incubation. Then, using the treated RNA samples, in the presence or absence of cycloheximide (final concentration of […]) or in the presence of purified ribosome prepared by a sucrose density-gradient centrifugation method, a cell-free protein synthesis reaction was performed. The cell-free protein synthesis was carried out by making reference to the research paper (Huez, I. et al. Mol. Cell. Biol. 18, 6178-6190 (1998)) or using Wako PURE system (trade name, Wako Chemical) following the specifications thereof.
In the same manner as in the above-described item (4), RNAs each were incubated in the combination shown in FIG. 8E, and cell-free protein synthesis was carried out. In this state, [^35S] methionine coexisted in a reaction solution of cell-free protein synthesis. Then, p53 protein synthesized in vitro was separated by SDS-PAGE using a polyacrylamide gel of 12%, and a dried gel was subjected to an autoradiography. FIG. 8E is an autoradiography showing synthesis of p53 protein in a reaction solution of cell-free protein in the presence of vegf 5′ UTR. […]

In another series the test system is HepG2 cells. The series can be described thus: apoptosis (Apoptotic evaluation 1) of siRNA-expressing HepG2 cells treated with 5-FU. The series is classed as cell-based, human. Particulars: control siRNA-expressing HepG2 cells treated with 5-FU. Here is the method: Objective cells were treated with various anticancer agents, and then incubated with trypsin/EDTA to prepare cell suspensions. The cell suspensions were centrifuged and supernatants thereof were removed. Thereafter, the cell suspensions each were immobilized and stained with a solution of formaldehyde of 3.7%, Nonidet P40 of 0.5%, and 10 μg/mL of Hoechst33258 (Invitrogen) in PBS. […] The counting was performed with respect to at least 300 cells in one measurement.
Each type of the recombinant vectors was transfected into HepG2 cells for 18 hours in the same manner as in the above-described item (1). Each type of the transfection cells was treated with an anticancer agent “5-FU” having a predetermined concentration (0, 10, 30 μmol/L) for 60 hours. Then, the apoptosis (%) of the treated cells was examined according to “Apoptosis evaluation 1”. FIG. 1B is a graph showing apoptosis (%) in each type of the cells treated with 5-FU having a predetermined concentration (means±SD, n=3).

Series [5] deals with noxa mRNA, puma mRNA, and p21 mRNA. The series can be described thus: expression of mRNAs induced in p53 pathways in HepG2 cells (Northern). Particulars: control siRNA HepG2 cells, 5-FU 30 μmol/L, 16 hours. The series is classed as cell-based, human. Here is the method: In the same manner, HepG2 cells transfected with each type of the vectors were treated for 16 hours in the presence of 5-FU (30 μmol/L) (+) or the absence of 5-FU (−). With respect to the treated cells, expression of noxa mRNA, puma mRNA, and p21 mRNA induced in p53 pathways was analyzed by the Northern blotting. […] In FIG. 1D, the first row from the top indicates expression of noxa mRNA, the second row indicates expression of puma mRNA, the third row indicates expression of p21 mRNA, and the fourth row indicates expression of gapdh mRNA. Definitions of the lanes in FIG. 1D are the same as those of FIG. 1C.

The next series relates to p53-deleted cells HCT116. The series can be described thus: apoptosis (TUNEL) in p53-deleted HCT116 cells with vegf siRNA and 5-FU. Particulars: p53-deleted cells HCT116, treatment with 5-FU. The series is classed as cell-based, human. Here is the method:
Apoptotic cells were evaluated by a TUNEL staining method using in situ Cell Death Detection kit (Roche Diagnostic). […] The counting was performed with respect to at least 300 cells in one measurement.
Various types of cells were treated with 5-FU, which is an anticancer agent inducing apoptosis in a p53-dependent manner, and the sensitivity to apoptosis was analyzed. The vegf siRNA#1 vectors expressing siRNA#1, the vegf siRNA #2 vectors expressing siRNA #2, and the control siRNA vectors described above respectively were transfected into HCT 116 (parent cells) and p53-deleted cells HCT116. Then, the cells after 18 hours from the transfection was treated for 60 hours in the presence of […] of 5-FU (+) or in the absence of 5-FU (−). The proportion (%) of apoptosis positive cells in the thus-treated cells was calculated based on “Apoptotic evaluation 2” above (means±SD, n=4).

Series [6] relates to HCT116 cells. The series can be described thus: p53 mRNA, vegf IresRNA and vegf mRNA in HCT116 cells exposed to genotoxic stress (Northern). The series is classed as cell-based, human. Here is the method:
HCT116 cells (parent cells) were exposed to genotoxic stress that upregulates the expression of p53 mRNA. […] Also, HCT116 cells were exposed to UV-B for 1 minute. Then, after placing them under non-exposed conditions for a predetermined time (6, 12 hours), the expressions were examined in the same manner as in the above.

[7] abbreviates: vegf antisense LNA-DNA cotransfected with vegf IresRNA and p53 expression vectors.

Turning to “mutant-type p53 decoy: LNA-DNA of the p53 decoy sequence introduced with mutation, SEQ ID NO: 94, 5′-cccGCcCACCcGGctgGTcca-3′ (DNA CCCGCCCACCCGGCTGGTCCA; LNA-DNA mixmer, LNA positions not given here)”, in the series with vegf IresRNA (p53 decoy LNA-DNA cotransfected with vegf IresRNA and p53 expression vectors), the “expression amount of p53 mRNA” value was “small”.

“wild-type vegf antisense: antisense LNA-DNA complementary to bases 693 to 714 of vegf IresRNA, SEQ ID NO: 74, 5′-ccccgcgcggaccacggctcct-3′ (antisense CCCCGCGCGGACCACGGCTCCT; LNA-DNA chimera, LNA positions not given here)”: in the series with vegf IresRNA (setting [7]), the “expression amount of p53 mRNA” value was “marked expression amount”. For the same compound, the “survival rate of cells” value in series [1] (vegf antisense, vs cells (none) not transfected) is given as “markedly decreased”. `COc1cccc2c1C(=O)c1c(O)c3c(c(O)c1C2=O)C[C@@](O)(C(=O)CO)C[C@@H]3O[C@H]1C[C@H](N)[C@H](O)[C@H](C)O1` [doxorubicin, reference compound]: in the series with HCT116 cells [2], the “significant enhancement of apoptosis” value is “not induced”. Turning to “wild-type p53 decoy: LNA-DNA corresponding to a sequence from base 462 to base 482 of p53 mRNA, SEQ ID NO: 93, 5′-ccccgcgtggcccctgcacca-3′ (DNA CCCCGCGTGGCCCCTGCACCA; LNA-DNA mixmer, LNA positions not given here)”, in series [1] (p53 decoy, vs no decoy and mutant-type decoy), the “survival rate of cells” value is “decreased”.

As for `C[C@@H]1C[C@@H]([C@H](O)CC2CC(=O)NC(=O)C2)C(=O)[C@@H](C)C1` [cycloheximide], in the series with p53 mRNA [3], the “effect on silencing of p53 mRNA due to vegf 5′ UTR” value is “marked inhibition of silencing”. Moreover, the “effect on partial degradation of p53 mRNA” value in the series with p53 mRNA [4] is on record as “completely blocked”. In the case of `O=c1[nH]cc(F)c(=O)[nH]1` [5-FU, 5-fluorouracil, reference compound], the proportion of apoptosis result in the series on HepG2 cells is recorded as “slightly increased”; with p53-deleted cells HCT116, “increased slightly”. Moreover, in series [5], the “expression of p21 mRNA” value is given as “slightly induced”. The “significant enhancement of apoptosis” value with HCT116 cells [2] is “not induced”. The “vegf IresRNA and vegf mRNA expression” value in the series on HCT116 cells [6] (HCT116, 5-FU 80 μmol/L or MMC 6 μg/ml, 0, 6, 12 hours) was “increased markedly”. In addition, the “expression of the p53 mRNA” value with HCT116 cells [6] (HCT116, 5-FU 80 μmol/L, MMC 6 μg/ml or cisplatin 5 μg/ml, 0, 6, 12 hours) was “suppressed”. With “mutant-type vegf antisense: antisense LNA-DNA having the sequence introduced with mutation, SEQ ID NO: 95, 5′-cccGCcCGggTcGTcCgcAccA-3′ (antisense CCCGCCCGGGTCGTCCGCACCA; LNA-DNA mixmer, LNA positions not given here)”, the “expression amount of p53 mRNA” value in the series on vegf IresRNA (setting [7]) is reported as “small”. Take `COc1cc([C@@H]2c3cc4c(cc3[C@@H](O[C@@H]3O[C@@H]5CO[C@@H](C)O[C@H]5[C@H](O)[C@H]3O)[C@H]3COC(=O)[C@H]23)OCO4)cc(OC)c1O` [etoposide, reference compound]: the “significant enhancement of apoptosis” value with HCT116 cells [2] is “not induced”.
